Species: Rattus norvegicus
Test: DrugMatrix - Regimen: Daily Repeat
Format: toxicity, organism-based, Sprague-Dawley
Design: regimen Daily Repeat, gender Male, age 6-8 weeks
Settings: in vivo, po, route oral GAVAGE, vehicle .5 % CMC; for ABSOLUTE BASOPHIL / ABSOLUTE EOSINOPHIL / ABSOLUTE LYMPHOCYTE / ABSOLUTE MONOCYTE / ABSOLUTE SEGMENTED NEUTROPHIL / BASOPHIL / EOSINOPHIL / ERYTHROCYTE COUNT / HEMATOCRIT / HEMOGLOBIN / LEUKOCYTE COUNT / LYMPHOCYTE / MEAN CORPUSCULAR HEMOGLOBIN / MEAN CORPUSCULAR HEMOGLOBIN CONCENTRATION / MEAN CORPUSCULAR VOLUME / MONOCYTE / NEUTROPHIL / NUCLEATED RED BLOOD CELLS / PLATELET COUNT: tissue Blood; for ALANINE AMINOTRANSFERASE / ALBUMIN / ALKALINE PHOSPHATASE / ASPARTATE AMINOTRANSFERASE / BLOOD UREA NITROGEN / CARBON DIOXIDE / CHLORIDE / CHOLESTEROL / CREATINE PHOSPHOKINASE / CREATININE / GLUCOSE / LACTATE DEHYDROGENASE / LIPASE / PHOSPHORUS / POTASSIUM / SODIUM / TOTAL BILIRUBIN / TOTAL PROTEIN / URIC ACID: tissue Plasma
[1] = 100 mg/kg, 72 h, dose level Low, time 3 day
[2] = 100 mg/kg, 120 h, dose level Low, time 5 day
[3] = 1500 mg/kg, 72 h, dose level High, time 3 day
[4] = 1500 mg/kg, 120 h, dose level High, time 5 day

CC(C)Oc1ccc2c(=O)c(-c3ccccc3)coc2c1 [IPRIFLAVONE]
ABSOLUTE BASOPHIL [1]: 0 CELLS/uL
ABSOLUTE EOSINOPHIL [1]: 99.33 CELLS/uL
ABSOLUTE LYMPHOCYTE [1]: 13635.33 CELLS/uL
ABSOLUTE MONOCYTE [1]: 415.67 CELLS/uL
ABSOLUTE SEGMENTED NEUTROPHIL [1]: 2916.33 CELLS/uL
BASOPHIL [1]: 0%
EOSINOPHIL [1]: 0.67%
ERYTHROCYTE COUNT [1]: 5.96 x10E6/uL
HEMATOCRIT [1]: 37.1%
HEMOGLOBIN [1]: 14.43 G/DL
LEUKOCYTE COUNT [1]: 17.07 x10E3/uL
LYMPHOCYTE [1]: 80.33%
MEAN CORPUSCULAR HEMOGLOBIN [1]: 24.23 pg
MEAN CORPUSCULAR HEMOGLOBIN CONCENTRATION [1]: 38.93 G/DL
MEAN CORPUSCULAR VOLUME [1]: 62.3 fL
MONOCYTE [1]: 2.33%
NEUTROPHIL [1]: 16.67%
NUCLEATED RED BLOOD CELLS [1]: 0 /100WBC
PLATELET COUNT [1]: 1359 x10E3/uL
ALANINE AMINOTRANSFERASE [1]: 44 u/L
ALBUMIN [1]: 4.53 G/DL
ALKALINE PHOSPHATASE [1]: 342.67 u/L
ASPARTATE AMINOTRANSFERASE [1]: 79.33 u/L
BLOOD UREA NITROGEN [1]: 19.67 mg/dL
CARBON DIOXIDE [1]: 24.33 mmol/L
CHLORIDE [1]: 97.67 MEQ/L
CHOLESTEROL [1]: 61.67 mg/dL
CREATINE PHOSPHOKINASE [1]: 241.33 u/L
CREATININE [1]: 0.23 mg/dL
GLUCOSE [1]: 153.33 mg/dL
LACTATE DEHYDROGENASE [1]: 129.33 u/L
LIPASE [1]: 9.67 u/L
PHOSPHORUS [1]: 11.17 mg/dL
POTASSIUM [1]: 7.3 MEQ/L
SODIUM [1]: 139.57 MEQ/L
TOTAL BILIRUBIN [1]: 0.23 mg/dL
TOTAL PROTEIN [1]: 6.17 G/DL
URIC ACID [1]: 2.23 mg/dL
ABSOLUTE BASOPHIL [2]: 0 CELLS/uL
ABSOLUTE EOSINOPHIL [2]: 57.67 CELLS/uL
ABSOLUTE LYMPHOCYTE [2]: 12897.67 CELLS/uL
ABSOLUTE MONOCYTE [2]: 315.33 CELLS/uL
ABSOLUTE SEGMENTED NEUTROPHIL [2]: 1196 CELLS/uL
BASOPHIL [2]: 0%
EOSINOPHIL [2]: 0.33%
ERYTHROCYTE COUNT [2]: 6.06 x10E6/uL
HEMATOCRIT [2]: 36.3%
HEMOGLOBIN [2]: 14.4 G/DL
LEUKOCYTE COUNT [2]: 14.47 x10E3/uL
LYMPHOCYTE [2]: 89%
MEAN CORPUSCULAR HEMOGLOBIN [2]: 23.8 pg
MEAN CORPUSCULAR HEMOGLOBIN CONCENTRATION [2]: 39.67 G/DL
MEAN CORPUSCULAR VOLUME [2]: 59.93 fL
MONOCYTE [2]: 2%
NEUTROPHIL [2]: 8.67%
NUCLEATED RED BLOOD CELLS [2]: 0.33 /100WBC
PLATELET COUNT [2]: 1112 x10E3/uL
ALANINE AMINOTRANSFERASE [2]: 47 u/L
ALBUMIN [2]: 4.3 G/DL
ALKALINE PHOSPHATASE [2]: 297.33 u/L
ASPARTATE AMINOTRANSFERASE [2]: 91.33 u/L
BLOOD UREA NITROGEN [2]: 15 mg/dL
CARBON DIOXIDE [2]: 25.33 mmol/L
CHLORIDE [2]: 100.67 MEQ/L
CHOLESTEROL [2]: 64 mg/dL
CREATINE PHOSPHOKINASE [2]: 318.67 u/L
CREATININE [2]: 0.19 mg/dL
GLUCOSE [2]: 158.67 mg/dL
LACTATE DEHYDROGENASE [2]: 474.67 u/L
LIPASE [2]: 9 u/L
PHOSPHORUS [2]: 11.83 mg/dL
POTASSIUM [2]: 6.46 MEQ/L
SODIUM [2]: 142.8 MEQ/L
TOTAL BILIRUBIN [2]: 0.13 mg/dL
TOTAL PROTEIN [2]: 5.93 G/DL
URIC ACID [2]: 1.7 mg/dL
ABSOLUTE BASOPHIL [3]: 0 CELLS/uL
ABSOLUTE EOSINOPHIL [3]: 0 CELLS/uL
ABSOLUTE LYMPHOCYTE [3]: 12351.67 CELLS/uL
ABSOLUTE MONOCYTE [3]: 95 CELLS/uL
ABSOLUTE SEGMENTED NEUTROPHIL [3]: 2086.67 CELLS/uL
BASOPHIL [3]: 0%
EOSINOPHIL [3]: 0%
ERYTHROCYTE COUNT [3]: 5.63 x10E6/uL
HEMATOCRIT [3]: 34.7%
HEMOGLOBIN [3]: 13.77 G/DL
LEUKOCYTE COUNT [3]: 14.53 x10E3/uL
LYMPHOCYTE [3]: 85%
MEAN CORPUSCULAR HEMOGLOBIN [3]: 24.47 pg
MEAN CORPUSCULAR HEMOGLOBIN CONCENTRATION [3]: 39.67 G/DL
MEAN CORPUSCULAR VOLUME [3]: 61.63 fL
MONOCYTE [3]: 0.67%
NEUTROPHIL [3]: 14.33%
NUCLEATED RED BLOOD CELLS [3]: 0.33 /100WBC
PLATELET COUNT [3]: 1247.33 x10E3/uL
ALANINE AMINOTRANSFERASE [3]: 44.33 u/L
ALBUMIN [3]: 4.3 G/DL
ALKALINE PHOSPHATASE [3]: 325 u/L
ASPARTATE AMINOTRANSFERASE [3]: 80.33 u/L
BLOOD UREA NITROGEN [3]: 15.33 mg/dL
CARBON DIOXIDE [3]: 27 mmol/L
CHLORIDE [3]: 101 MEQ/L
CHOLESTEROL [3]: 68.67 mg/dL
CREATINE PHOSPHOKINASE [3]: 256.33 u/L
CREATININE [3]: 0.15 mg/dL
GLUCOSE [3]: 149.33 mg/dL
LACTATE DEHYDROGENASE [3]: 181 u/L
LIPASE [3]: 9.33 u/L
PHOSPHORUS [3]: 12.3 mg/dL
POTASSIUM [3]: 6.1 MEQ/L
SODIUM [3]: 143.17 MEQ/L
TOTAL BILIRUBIN [3]: 0.1 mg/dL
TOTAL PROTEIN [3]: 5.67 G/DL
URIC ACID [3]: 1.53 mg/dL
ABSOLUTE BASOPHIL [4]: 0 CELLS/uL
ABSOLUTE EOSINOPHIL [4]: 0 CELLS/uL
ABSOLUTE LYMPHOCYTE [4]: 12219.33 CELLS/uL
ABSOLUTE MONOCYTE [4]: 47.33 CELLS/uL
ABSOLUTE SEGMENTED NEUTROPHIL [4]: 1100 CELLS/uL
BASOPHIL [4]: 0%
EOSINOPHIL [4]: 0%
ERYTHROCYTE COUNT [4]: 5.81 x10E6/uL
HEMATOCRIT [4]: 35.17%
HEMOGLOBIN [4]: 14.03 G/DL
LEUKOCYTE COUNT [4]: 13.37 x10E3/uL
LYMPHOCYTE [4]: 91.33%
MEAN CORPUSCULAR HEMOGLOBIN [4]: 24.23 pg
MEAN CORPUSCULAR HEMOGLOBIN CONCENTRATION [4]: 39.9 G/DL
MEAN CORPUSCULAR VOLUME [4]: 60.63 fL
MONOCYTE [4]: 0.33%
NEUTROPHIL [4]: 8.33%
NUCLEATED RED BLOOD CELLS [4]: 0 /100WBC
PLATELET COUNT [4]: 1215 x10E3/uL
ALANINE AMINOTRANSFERASE [4]: 48 u/L
ALBUMIN [4]: 4.47 G/DL
ALKALINE PHOSPHATASE [4]: 278.33 u/L
ASPARTATE AMINOTRANSFERASE [4]: 72.33 u/L
BLOOD UREA NITROGEN [4]: 14.67 mg/dL
CARBON DIOXIDE [4]: 25.67 mmol/L
CHLORIDE [4]: 102.33 MEQ/L
CHOLESTEROL [4]: 53 mg/dL
CREATINE PHOSPHOKINASE [4]: 231 u/L
CREATININE [4]: 0.16 mg/dL
GLUCOSE [4]: 153 mg/dL
LACTATE DEHYDROGENASE [4]: 157.33 u/L
LIPASE [4]: 9.67 u/L
PHOSPHORUS [4]: 11.6 mg/dL
POTASSIUM [4]: 6.76 MEQ/L
SODIUM [4]: 145.4 MEQ/L
TOTAL BILIRUBIN [4]: 0.2 mg/dL
TOTAL PROTEIN [4]: 6.17 G/DL
URIC ACID [4]: 1.9 mg/dL

Reference: ChEMBL document CHEMBL3885881, “DrugMatrix”
